The source made the active and inactive calls. The calls are words filed in the database; no cut-off is given here.
Experiments:
[1] = tested on: A549; assay: Cytotoxicity against Homo sapiens (human) A549 cells by MTT assay; assay type: functional, cell-based
[2] = tested on: HEp-2; assay: Cytotoxicity against Homo sapiens (human) Hep2 cells by MTT assay; assay type: functional, cell-based
[3] = tested on: HeLa; assay: Cytotoxicity against Homo sapiens (human) HeLa cells by MTT assay; assay type: functional, cell-based
[4] = tested on: Escherichia coli; assay: Induction of DNA cleavage in Escherichia coli at 1 ug/ml after 2 hr by agarose gel electrophoretic analysis

SMILES	IC50 [1] [µM]	IC50 [2] [µM]	IC50 [3] [µM]	Activity [4]
CC1=NNC(=O)C1C(c1c(-c2ccccc2)[nH]c2ccccc12)c1c(-c2ccccc2)[nH]c2ccc(Cl)cc12 (stereo not drawn)	31.3	41.7	29.8	Active
CC1=NNC(=O)C1C(c1c(-c2ccccc2)[nH]c2ccc(C)cc12)c1c(-c2ccccc2)[nH]c2ccc(C)cc12 (stereo not drawn)	37	> 100	32.7	
COc1ccc2[nH]c(-c3ccccc3)c(C(c3c(-c4ccccc4)[nH]c4ccc(C)cc34)C3C(=O)NN=C3C)c2c1 (stereo not drawn)	1.8	3.5	> 100	Active
COc1ccc2[nH]c(-c3ccccc3)c(C(c3c[nH]c4ccccc34)C3C(=O)NN=C3C)c2c1 (stereo not drawn)	2.7	5.3	1.7	
CC1=NNC(=O)C1C(c1c[nH]c2ccccc12)c1c(-c2ccccc2)[nH]c2ccc(Cl)cc12 (stereo not drawn)	1.6	> 100	3.8	
CC1=NNC(=O)C1C(c1c(-c2ccccc2)[nH]c2ccc(C)cc12)c1c(-c2ccccc2)[nH]c2ccc(Cl)cc12 (stereo not drawn)	35	32.4	> 100	
CC1=NNC(=O)C1C(c1c(-c2ccccc2)[nH]c2ccc(Cl)cc12)c1c(-c2ccccc2)[nH]c2ccc(Cl)cc12 (stereo not drawn)	7	14.6	9.5	
CC1=NNC(=O)C1C(c1c[nH]c2ccccc12)c1c(-c2ccccc2)[nH]c2ccc(C)cc12 (stereo not drawn)	1.3	3.2	2.4	Active
CC1=NNC(=O)C1C(c1c[nH]c2ccccc12)c1c(-c2ccccc2)[nH]c2ccccc12 (stereo not drawn)	5.5	6.7	7.7	
CC1=NNC(=O)C1C(c1c(-c2ccccc2)[nH]c2ccccc12)c1c(-c2ccccc2)[nH]c2ccc(C)cc12 (stereo not drawn)	22.1	> 100	> 100	
COc1ccc2[nH]c(-c3ccccc3)c(C(c3c(-c4ccccc4)[nH]c4ccc(Cl)cc34)C3C(=O)NN=C3C)c2c1 (stereo not drawn)	1.1	6.2	1.2	Active
COc1cccc2c1C(=O)c1c(O)c3c(c(O)c1C2=O)C[C@@](O)(C(=O)CO)C[C@@H]3O[C@H]1C[C@H](N)[C@H](O)[C@H](C)O1 [DOXORUBICIN]			0.71	
